Measured values: US12077503B2, “Substituted cyclic amides and their use as herbicides” (FMC CORPORATION, priority 2015, dated 2024)

What was measured:
Assay type in all cases: in vivo
Kochia (Kochia scoparia) [1] = experiment: Test A preemergence; conditions: Bassia scoparia, pre-emergence, 240 h, 0 to 100 scale where 0 is no effect and 100 is complete control, read-out: Kochia plant response rating
How it was run: (§1)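 Seeded soil received test chemicals as a preemergence directed spray, and seedlings at one to two leaves, 2–10 cm tall, received them postemergence, in a non-phytotoxic, surfactant-containing solvent mixture. Pots were held in a greenhouse for approximately 10 d, then rated for injury from 0, no effect, to 100, complete control.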

[2] = test system: barnyardgrass (Echinochloa crus-galli); experiment: Test A preemergence; conditions: Echinochloa crus-galli, pre-emergence, 240 h, 0 to 100 scale where 0 is no effect and 100 is complete control, read-out: Barnyardgrass plant response rating
How it was run: as §1

[3] = test system: giant foxtail (Setaria faberii); experiment: Test A preemergence; conditions: Setaria faberi, pre-emergence, 240 h, 0 to 100 scale where 0 is no effect and 100 is complete control, read-out: Foxtail, Giant plant response rating
How it was run: as §1

[4] = test system: pigweed (Amaranthus retroflexus); experiment: Test A preemergence; conditions: Amaranthus retroflexus, pre-emergence, 240 h, 0 to 100 scale where 0 is no effect and 100 is complete control, read-out: Pigweed plant response rating
[5] = test system: ragweed (common ragweed, Ambrosia elatior); experiment: Test A preemergence; conditions: Ambrosia artemisiifolia, pre-emergence, 240 h, 0 to 100 scale where 0 is no effect and 100 is complete control, read-out: Ragweed plant response rating
How it was run: as §1

[6] = test system: ryegrass, Italian (Italian ryegrass, Lolium multiflorum); experiment: Test A preemergence; conditions: Lolium multiflorum, pre-emergence, 240 h, 0 to 100 scale where 0 is no effect and 100 is complete control, read-out: Ryegrass, Italian plant response rating
How it was run: as §1

[7] = test system: Galium (catchweed bedstraw, Galium aparine); experiment: Test A postemergence; conditions: Galium, post-emergence, 240 h
How it was run: as §1

Kochia (Kochia scoparia) [8] = experiment: Test A postemergence; conditions: Bassia scoparia, post-emergence, 240 h
How it was run: as §1

[9] = test system: barnyardgrass (Echinochloa crus-galli); experiment: Test A postemergence; conditions: Echinochloa crus-galli, post-emergence, 240 h
How it was run: as §1

[10] = test system: blackgrass (Alopecurus myosuroides); experiment: Test A postemergence; conditions: Alopecurus myosuroides, post-emergence, 240 h
How it was run: as §1

corn (Zea mays) = experiment: Test A postemergence; conditions: Zea mays, post-emergence, 240 h
How it was run: as §1

[11] = test system: giant foxtail (Setaria faberii); experiment: Test A postemergence; conditions: Setaria faberi, post-emergence, 240 h
How it was run: as §1

[12] = test system: pigweed (Amaranthus retroflexus); experiment: Test A postemergence; conditions: Amaranthus retroflexus, post-emergence, 240 h
How it was run: as §1

[13] = test system: ragweed (common ragweed, Ambrosia elatior); experiment: Test A postemergence; conditions: Ambrosia artemisiifolia, post-emergence, 240 h
How it was run: as §1

[14] = test system: ryegrass, Italian (Italian ryegrass, Lolium multiflorum); experiment: Test A postemergence; conditions: Lolium multiflorum, post-emergence, 240 h
How it was run: as §1

[15] = test system: wheat (Triticum aestivum); experiment: Test A postemergence; conditions: Triticum aestivum, post-emergence, 240 h
How it was run: as §1

[16] = test system: barnyardgrass (Echinochloa crus-galli); experiment: Test B flooded paddy test; conditions: Echinochloa crus-galli, 250 g ai/ha, Flood; 0 to 100 scale where 0 is no effect and 100 is complete control; read-out: Barnyardgrass plant response rating
How it was run: (§2)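 2-leaf plants; pots flooded 3 cm over soil; cpd added to paddy water; depth held; greenhouse 13–15 d; visual rating vs controls, 0 = no effect, 100 = complete control.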

[17] = test system: ducksalad (Heteranthera limosa); experiment: Test B flooded paddy test; conditions: Heteranthera limosa, 250 g ai/ha, Flood; 0 to 100 scale where 0 is no effect and 100 is complete control; read-out: Ducksalad plant response rating
How it was run: as §2

rice (Oryra sativa) = experiment: Test B flooded paddy test; conditions: Oryza sativa, 250 g ai/ha, Flood; 0 to 100 scale where 0 is no effect and 100 is complete control; read-out: Rice plant response rating
How it was run: as §2

[18] = test system: sedge, umbrella (small-flower umbrella sedge, Cyperus difformis); experiment: Test B flooded paddy test; conditions: Cyperus difformis, 250 g ai/ha, Flood; 0 to 100 scale where 0 is no effect and 100 is complete control; read-out: Sedge, Umbrella plant response rating
How it was run: as §2

[19] = 125 g ai/ha, preemergence, approx. 10 d

With `CN1C[C@H](c2cccc(C(F)(F)F)c2)[C@@H](C(=O)Nc2ccccc2CCO)C1=O` (racemic) [Compound 1162] the pest or weed control at 31 g/ha (Kochia (Kochia scoparia) [1]; 31 g ai/ha, Preemergence) was 0%, the pest or weed control at 125 g/ha (Kochia (Kochia scoparia) [1]; [19]) was 0% and the pest or weed control at 31 g/ha ([2]; 31 g ai/ha, Preemergence) was 40%. The pest or weed control at 125 g/ha [2, 19] was 90%, the pest or weed control at 31 g/ha ([3]; 31 g ai/ha, Preemergence) was 50% and the pest or weed control at 125 g/ha [3, 19] was 90%. The pest or weed control at 31 g/ha ([4]; 31 g ai/ha, Preemergence) was 0%, the pest or weed control at 125 g/ha [4, 19] was 0% and the pest or weed control at 31 g/ha ([5]; 31 g ai/ha, Preemergence) was 0%. It also gave a pest or weed control at 125 g/ha [5, 19] of 0%, a pest or weed control at 31 g/ha ([6]; 31 g ai/ha, Preemergence) of 0% and a pest or weed control at 125 g/ha [6, 19] of 20%. It also gave a pest or weed control at 125 g/ha ([7]; 125 g ai/ha, postemergence, visual injury vs untreated controls after approx. 10 d, 0 = no effect, 100 = complete control, read-out: Galium plant response rating (0 to 100 scale)) of 50%, a pest or weed control at 31 g/ha ([7]; Postemergence, 31 g ai/ha, visual injury after approx. 10 d, 0 to 100 scale, 0 no effect, 100 complete control, read-out: Plant response rating, Galium) of 0% and a pest or weed control at 125 g/ha (Kochia (Kochia scoparia) [8]; 125 g ai/ha, postemergence, visual injury vs untreated controls after approx. 10 d, 0 = no effect, 100 = complete control, read-out: Kochia plant response rating (0 to 100 scale)) of 0%. It also gave a pest or weed control at 31 g/ha (Kochia (Kochia scoparia) [8]; Postemergence, 31 g ai/ha, visual injury after approx. 10 d, 0 to 100 scale, 0 no effect, 100 complete control, read-out: Plant response rating, Kochia) of 0%, a pest or weed control at 125 g/ha ([9]; 125 g ai/ha, postemergence, visual injury vs untreated controls after approx. 10 d, 0 = no effect, 100 = complete control, read-out: Barnyardgrass plant response rating (0 to 100 scale)) of 60% and a pest or weed control at 31 g/ha ([9]; Postemergence, 31 g ai/ha, visual injury after approx. 10 d, 0 to 100 scale, 0 no effect, 100 complete control, read-out: Plant response rating, Barnyardgrass) of 30%. The pest or weed control at 125 g/ha ([10]; 125 g ai/ha, postemergence, visual injury vs untreated controls after approx. 10 d, 0 = no effect, 100 = complete control, read-out: Blackgrass plant response rating (0 to 100 scale)) was 0%, the pest or weed control at 31 g/ha ([10]; Postemergence, 31 g ai/ha, visual injury after approx. 10 d, 0 to 100 scale, 0 no effect, 100 complete control, read-out: Plant response rating, Blackgrass) was 0% and the plant injury at 125 g/ha (corn (Zea mays); 125 g ai/ha, postemergence, visual injury vs untreated controls after approx. 10 d, 0 = no effect, 100 = complete control, read-out: Corn plant response rating (0 to 100 scale)) was 0%. It also gave a Corn plant response rating (crop injury, 0 = no effect, 100 = complete kill) at 31 g/ha (corn (Zea mays); Postemergence, 31 g ai/ha, visual injury after approx. 10 d, 0 to 100 scale, 0 no effect, 100 complete control) of 0%, a pest or weed control at 125 g/ha ([11]; 125 g ai/ha, postemergence, visual injury vs untreated controls after approx. 10 d, 0 = no effect, 100 = complete control, read-out: Foxtail, Giant plant response rating (0 to 100 scale)) of 40% and a pest or weed control at 31 g/ha ([11]; Postemergence, 31 g ai/ha, visual injury after approx. 10 d, 0 to 100 scale, 0 no effect, 100 complete control, read-out: Plant response rating, Foxtail, Giant) of 30%. The pest or weed control at 125 g/ha ([12]; 125 g ai/ha, postemergence, visual injury vs untreated controls after approx. 10 d, 0 = no effect, 100 = complete control, read-out: Pigweed plant response rating (0 to 100 scale)) was 0%, the pest or weed control at 31 g/ha ([12]; Postemergence, 31 g ai/ha, visual injury after approx. 10 d, 0 to 100 scale, 0 no effect, 100 complete control, read-out: Plant response rating, Pigweed) was 0% and the pest or weed control at 125 g/ha ([13]; 125 g ai/ha, postemergence, visual injury vs untreated controls after approx. 10 d, 0 = no effect, 100 = complete control, read-out: Ragweed plant response rating (0 to 100 scale)) was 0%. It also gave a pest or weed control at 31 g/ha ([13]; Postemergence, 31 g ai/ha, visual injury after approx. 10 d, 0 to 100 scale, 0 no effect, 100 complete control, read-out: Plant response rating, Ragweed) of 0%, a pest or weed control at 125 g/ha ([14]; 125 g ai/ha, postemergence, visual injury vs untreated controls after approx. 10 d, 0 = no effect, 100 = complete control, read-out: Ryegrass, Italian plant response rating (0 to 100 scale)) of 0% and a pest or weed control at 31 g/ha ([14]; Postemergence, 31 g ai/ha, visual injury after approx. 10 d, 0 to 100 scale, 0 no effect, 100 complete control, read-out: Plant response rating, Ryegrass, Italian) of 0%. It also gave a plant injury at 125 g/ha ([15]; 125 g ai/ha, postemergence, visual injury vs untreated controls after approx. 10 d, 0 = no effect, 100 = complete control, read-out: Wheat plant response rating (0 to 100 scale)) of 20%, a plant injury at 31 g/ha ([15]; Postemergence, 31 g ai/ha, visual injury after approx. 10 d, 0 to 100 scale, 0 no effect, 100 complete control, read-out: Plant response rating, Wheat) of 0% and a pest or weed control at 250 g/ha [16] of 35%. The pest or weed control at 250 g/ha [17] was 80%, the pest or weed control at 250 g/ha (rice (Oryra sativa)) was 15% and the pest or weed control at 250 g/ha [18] was 0%.
